Results as given in US12297194B2, “N2-phenylpyrimidine-2,4-diamine compounds, and preparation methods and methods of use thereof” (BRIDGE BIOTHERAPEUTICS, INC., priority 2021, dated 2025).

What was measured:
Assay type in all cases: cell-based, murine
[1] = target: Ba/F3 EGFR Del19/C797S mutants (Homo sapiens, UniProt P00533, C797S, cells depend on it, form not given); experiment: CellTiter-Glo cell viability, Ba/F3 EGFR Del19/C797S cells; conditions: 72 hours, read-out: Ba/F3 EGFR mutant cell (IC50, nM) D/C
Method: (§1) In order to evaluate an inhibitory ability on wild-type Ba/F3 EGFR and Ba/F3 EGFR mutations in Ba/F3 cell lines by the compounds of Formula 1, the experiment was carried out as described below.
(§2) The measurement of activities on Ba/F3 cells harboring wild-type EGFR and EGFR mutants by the compounds of the present invention were determined utilizing the CELLTITER-GLO™ system from Promega, as follows. The CELLTITER-GLO™ assay is a method for measuring the ATP present in cells to determine the cell viability. Ba/F3 EGFR wild-type and Ba/F3 EGFR L858R/C797S (L/C), Ba/F3 EGFR L858R/T790M/C797S (L/T/C), Ba/F3 EGFR Del19/T790M (D/T), Ba/F3 EGFR Del19/C797S (D/C), Ba/F3 EGFR Del19/T790M/C797S (D/T/C) mutant cell lines were maintained in RPMI1640, containing […], 1% penicillin-streptomycin, […] puromycin. Cells were grown in a humidified incubator at 37° C. with […].
(§3) The analysis of an EGFR inhibitory activity by the compounds was carried out in accordance with the analysis reaction recipe below.
(§4) 2500 cells/90 μL were seeded in 96 well cell culture plate, and after 24 hours, treated with the compounds represented by Formula 1 in concentrations of 0, 0.3, 0.9, 2.7, 8.2, 24.7, 74.1, 222.2, 666.7, 2000 (nM). After the reaction of 72 hours, the plate was incubated for 30 minutes at ambient temperature, and then, was further treated with 100 μL of the CELLTITER-GLO™ reagent and was shaken for 10 minutes at ambient temperature. Finally, measurement of the luminescence values were obtained using the SPECTRAMAX™ iD3 (Molecular Devices), and the IC50 values of the compound were analyzed using the GraphPad Prism program (version 9.0.2, GraphPad Software, Inc.).

[2] = target: Ba/F3 EGFR L858R/C797S mutants (Homo sapiens, UniProt P00533, C797S/L858R, cells depend on it); experiment: CellTiter-Glo cell viability, Ba/F3 EGFR L858R/C797S cells; conditions: 72 hours, read-out: Ba/F3 EGFR mutant cell (IC50, nM) L/C
Method: as §1, §2, §3, §4

[3] = target: Ba/F3 EGFR Del19/T790M/C797S mutants (Homo sapiens, UniProt P00533, T790M/C797S, cells depend on it, form not given); experiment: CellTiter-Glo cell viability, Ba/F3 EGFR Del19/T790M/C797S cells; conditions: 72 hours, read-out: Ba/F3 EGFR mutant cell (IC50, nM) D/T/C
Method: as §1, §2, §3, §4

[4] = target: Ba/F3 EGFR Del19/T790M mutants (Homo sapiens, UniProt P00533, T790M, cells depend on it, form not given); experiment: CellTiter-Glo cell viability, Ba/F3 EGFR Del19/T790M cells; conditions: 72 hours, read-out: Ba/F3 EGFR mutant cell (IC50, nM) D/T
Method: as §1, §2, §3, §4

[5] = target: Ba/F3 EGFR Wild-type (Homo sapiens, UniProt P00533); experiment: CellTiter-Glo cell viability, Ba/F3 EGFR wild-type cells; conditions: 72 hours, read-out: Ba/F3 EGFR mutant cell (IC50, nM) WT
Method: as §1, §2, §3, §4

[6] = target: Ba/F3 EGFR L858R/T790M/C797S mutants (Homo sapiens, UniProt P00533, T790M/C797S/L858R, cells depend on it); experiment: CellTiter-Glo cell viability, Ba/F3 EGFR L858R/T790M/C797S cells; conditions: 72 hours, read-out: Ba/F3 EGFR mutant cell (IC50, nM) L/T/C
Method: as §1, §2, §3, §4

Sequence of Ba/F3 EGFR Wild-type (P00533 whole entry, change not shown): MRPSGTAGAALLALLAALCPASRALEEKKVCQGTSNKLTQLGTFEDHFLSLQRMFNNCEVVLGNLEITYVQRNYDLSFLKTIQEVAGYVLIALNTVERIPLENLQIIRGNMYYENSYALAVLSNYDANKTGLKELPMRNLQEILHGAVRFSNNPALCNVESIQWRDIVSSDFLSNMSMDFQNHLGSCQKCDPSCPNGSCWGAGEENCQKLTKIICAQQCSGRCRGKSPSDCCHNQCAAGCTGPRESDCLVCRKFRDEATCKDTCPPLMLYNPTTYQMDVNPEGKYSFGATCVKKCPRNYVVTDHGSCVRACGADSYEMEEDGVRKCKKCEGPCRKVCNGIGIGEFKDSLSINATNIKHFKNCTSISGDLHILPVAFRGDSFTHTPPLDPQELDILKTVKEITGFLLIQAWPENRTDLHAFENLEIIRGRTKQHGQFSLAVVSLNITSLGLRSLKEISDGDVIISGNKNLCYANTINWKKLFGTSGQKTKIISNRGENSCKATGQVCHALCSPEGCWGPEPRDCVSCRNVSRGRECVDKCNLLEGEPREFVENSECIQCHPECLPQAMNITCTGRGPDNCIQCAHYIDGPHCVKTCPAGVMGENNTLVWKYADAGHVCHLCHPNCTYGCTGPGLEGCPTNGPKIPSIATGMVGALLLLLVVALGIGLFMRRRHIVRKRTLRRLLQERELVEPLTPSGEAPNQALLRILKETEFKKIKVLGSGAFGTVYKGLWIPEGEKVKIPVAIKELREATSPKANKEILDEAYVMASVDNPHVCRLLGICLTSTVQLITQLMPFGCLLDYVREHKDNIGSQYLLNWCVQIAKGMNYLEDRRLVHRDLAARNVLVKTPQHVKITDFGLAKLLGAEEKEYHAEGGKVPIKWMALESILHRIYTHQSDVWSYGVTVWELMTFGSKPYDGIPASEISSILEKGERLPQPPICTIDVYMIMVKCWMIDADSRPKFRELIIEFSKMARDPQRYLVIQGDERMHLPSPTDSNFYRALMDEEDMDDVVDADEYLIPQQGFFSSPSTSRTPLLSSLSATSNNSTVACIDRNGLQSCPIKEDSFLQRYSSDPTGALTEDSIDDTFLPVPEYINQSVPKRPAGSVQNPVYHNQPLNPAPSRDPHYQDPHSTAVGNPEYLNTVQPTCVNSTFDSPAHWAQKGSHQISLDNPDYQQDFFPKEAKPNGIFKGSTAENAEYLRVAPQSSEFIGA
Sequence of Ba/F3 EGFR L858R/T790M/C797S mutants (P00533 whole entry T790M/C797S/L858R): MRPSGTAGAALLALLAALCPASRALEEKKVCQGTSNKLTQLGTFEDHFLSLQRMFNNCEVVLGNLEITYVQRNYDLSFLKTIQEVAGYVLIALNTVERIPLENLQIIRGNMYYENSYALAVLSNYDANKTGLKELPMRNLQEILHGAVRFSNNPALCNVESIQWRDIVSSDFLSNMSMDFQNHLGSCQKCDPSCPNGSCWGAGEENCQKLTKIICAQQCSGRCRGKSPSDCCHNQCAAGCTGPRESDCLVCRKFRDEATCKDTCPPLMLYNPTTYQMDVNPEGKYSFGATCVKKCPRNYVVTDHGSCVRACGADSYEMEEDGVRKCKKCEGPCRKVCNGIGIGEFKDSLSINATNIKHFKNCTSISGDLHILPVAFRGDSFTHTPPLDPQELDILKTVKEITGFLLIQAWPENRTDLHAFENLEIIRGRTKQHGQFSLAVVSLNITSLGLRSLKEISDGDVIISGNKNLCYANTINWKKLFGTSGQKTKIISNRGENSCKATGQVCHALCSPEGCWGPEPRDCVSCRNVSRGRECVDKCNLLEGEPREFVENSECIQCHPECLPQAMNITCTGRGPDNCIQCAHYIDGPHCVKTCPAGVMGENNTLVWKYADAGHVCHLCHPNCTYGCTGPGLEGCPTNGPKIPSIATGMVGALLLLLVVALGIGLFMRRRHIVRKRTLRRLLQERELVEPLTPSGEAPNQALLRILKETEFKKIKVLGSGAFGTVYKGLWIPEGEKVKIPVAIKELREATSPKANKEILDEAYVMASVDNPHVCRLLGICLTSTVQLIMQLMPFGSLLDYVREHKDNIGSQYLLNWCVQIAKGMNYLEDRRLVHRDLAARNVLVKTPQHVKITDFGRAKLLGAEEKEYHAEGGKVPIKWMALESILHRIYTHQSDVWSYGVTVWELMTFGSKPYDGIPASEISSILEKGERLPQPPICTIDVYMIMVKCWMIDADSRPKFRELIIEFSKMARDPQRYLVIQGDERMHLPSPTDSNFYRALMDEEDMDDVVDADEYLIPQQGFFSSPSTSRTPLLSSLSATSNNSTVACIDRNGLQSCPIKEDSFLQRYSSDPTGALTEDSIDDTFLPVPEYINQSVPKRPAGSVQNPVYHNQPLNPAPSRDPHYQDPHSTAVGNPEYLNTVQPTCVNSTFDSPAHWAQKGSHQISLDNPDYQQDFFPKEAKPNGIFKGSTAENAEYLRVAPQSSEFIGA
Sequence of Ba/F3 EGFR Del19/T790M mutants (P00533 with tags, fused parts or gaps DEL746-750/T790M, form open): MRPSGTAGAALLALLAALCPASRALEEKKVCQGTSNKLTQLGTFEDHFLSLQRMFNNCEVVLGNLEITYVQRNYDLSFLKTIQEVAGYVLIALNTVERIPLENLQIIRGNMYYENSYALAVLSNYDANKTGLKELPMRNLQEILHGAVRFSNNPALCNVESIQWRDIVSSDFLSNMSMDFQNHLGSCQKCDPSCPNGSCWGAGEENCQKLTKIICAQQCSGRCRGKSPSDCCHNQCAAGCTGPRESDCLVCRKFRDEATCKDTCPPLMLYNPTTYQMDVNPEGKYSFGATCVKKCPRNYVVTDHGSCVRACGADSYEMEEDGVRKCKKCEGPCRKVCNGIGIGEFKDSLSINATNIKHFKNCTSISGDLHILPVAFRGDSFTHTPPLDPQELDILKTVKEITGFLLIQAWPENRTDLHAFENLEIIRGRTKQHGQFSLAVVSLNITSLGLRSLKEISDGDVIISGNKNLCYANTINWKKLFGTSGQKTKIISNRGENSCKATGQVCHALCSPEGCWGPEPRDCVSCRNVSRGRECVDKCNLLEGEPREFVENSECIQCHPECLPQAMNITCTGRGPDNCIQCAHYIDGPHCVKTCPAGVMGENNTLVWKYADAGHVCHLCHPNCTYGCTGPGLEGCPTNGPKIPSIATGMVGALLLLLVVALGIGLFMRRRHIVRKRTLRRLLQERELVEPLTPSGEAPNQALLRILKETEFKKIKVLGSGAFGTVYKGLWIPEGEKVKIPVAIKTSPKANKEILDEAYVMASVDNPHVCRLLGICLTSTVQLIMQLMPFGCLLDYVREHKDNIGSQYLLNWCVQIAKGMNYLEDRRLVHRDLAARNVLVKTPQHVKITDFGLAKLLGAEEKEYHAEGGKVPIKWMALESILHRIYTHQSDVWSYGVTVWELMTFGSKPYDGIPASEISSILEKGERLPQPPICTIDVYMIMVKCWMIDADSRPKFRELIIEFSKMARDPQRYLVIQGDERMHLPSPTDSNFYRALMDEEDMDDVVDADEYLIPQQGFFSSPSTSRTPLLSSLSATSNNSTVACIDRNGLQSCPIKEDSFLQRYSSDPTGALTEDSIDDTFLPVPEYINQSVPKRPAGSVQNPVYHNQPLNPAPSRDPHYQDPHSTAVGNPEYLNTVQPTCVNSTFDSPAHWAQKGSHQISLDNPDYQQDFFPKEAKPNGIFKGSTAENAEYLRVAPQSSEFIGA
Sequence of Ba/F3 EGFR L858R/C797S mutants (P00533 whole entry C797S/L858R): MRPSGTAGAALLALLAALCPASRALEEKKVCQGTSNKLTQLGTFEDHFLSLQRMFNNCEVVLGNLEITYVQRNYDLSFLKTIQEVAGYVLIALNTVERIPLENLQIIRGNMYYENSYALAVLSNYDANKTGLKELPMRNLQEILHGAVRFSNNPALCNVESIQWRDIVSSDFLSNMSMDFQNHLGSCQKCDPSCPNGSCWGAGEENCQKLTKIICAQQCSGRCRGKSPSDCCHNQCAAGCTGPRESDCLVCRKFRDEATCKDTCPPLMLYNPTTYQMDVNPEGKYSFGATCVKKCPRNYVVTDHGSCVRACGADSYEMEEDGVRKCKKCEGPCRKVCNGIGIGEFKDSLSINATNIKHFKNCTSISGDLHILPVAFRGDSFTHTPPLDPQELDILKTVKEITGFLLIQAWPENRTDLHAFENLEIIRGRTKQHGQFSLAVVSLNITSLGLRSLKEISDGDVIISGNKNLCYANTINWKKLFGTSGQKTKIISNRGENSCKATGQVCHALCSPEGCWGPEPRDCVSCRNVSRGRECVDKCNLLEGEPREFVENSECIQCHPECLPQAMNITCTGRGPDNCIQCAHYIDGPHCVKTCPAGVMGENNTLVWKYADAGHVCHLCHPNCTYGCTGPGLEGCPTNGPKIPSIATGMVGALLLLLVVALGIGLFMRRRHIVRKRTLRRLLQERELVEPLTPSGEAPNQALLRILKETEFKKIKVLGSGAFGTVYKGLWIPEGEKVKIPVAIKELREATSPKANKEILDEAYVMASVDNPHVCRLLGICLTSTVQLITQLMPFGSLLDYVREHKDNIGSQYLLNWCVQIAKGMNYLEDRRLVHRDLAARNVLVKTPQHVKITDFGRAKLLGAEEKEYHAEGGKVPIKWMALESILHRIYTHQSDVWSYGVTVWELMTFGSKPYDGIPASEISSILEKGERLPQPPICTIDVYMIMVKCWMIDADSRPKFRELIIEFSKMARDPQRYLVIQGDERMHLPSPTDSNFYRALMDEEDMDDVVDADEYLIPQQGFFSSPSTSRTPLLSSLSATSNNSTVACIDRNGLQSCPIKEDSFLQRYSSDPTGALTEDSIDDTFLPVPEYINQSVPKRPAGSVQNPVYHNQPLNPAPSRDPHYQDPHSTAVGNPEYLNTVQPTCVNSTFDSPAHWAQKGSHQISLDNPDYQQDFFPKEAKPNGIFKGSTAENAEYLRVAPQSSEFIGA

Which GI50 [1] does the source give for `COc1cc(N2CCC(N3CCN(C)CC3)CC2)c(C)cc1Nc1ncc(Cl)c(Nc2ccc3nccnc3c2NS(C)(=O)=O)n1` [Example A1, N-(6-((5-chloro-2-((2-methoxy-5-methyl-4-(4-(4-methylpiperazin-1-yl)piperidin-1-yl)phenyl)amino)pyrimidin-4-yl)amino)quinoxalin-5-yl)methanesulfonamide] here?
Its GI50 is 17 nM.

And the GI50 [2]?
The GI50 was 33 nM.

What about the GI50 [3] of the same compound?
The GI50 was 6 nM.

What about the GI50 [4] of the same compound?
Its GI50 is 7 nM.

And the GI50 [5]?
The GI50 was 312 nM.

What about the GI50 [6] of the same compound?
The GI50 was 17 nM.

With `CCc1cc(Nc2ncc(Cl)c(Nc3ccc4nccnc4c3NS(C)(=O)=O)n2)c(OC)cc1N1CCC(N2CCN(C)CC2)CC1` [Example A2, N-(6-((5-chloro-2-((5-ethyl-2-methoxy-4-(4-(4-methylpiperazin-1-yl)piperidin-1-yl)phenyl)amino)pyrimidin-4-yl)amino)quinoxalin-5-yl)methanesulfonamide] as the compound, how does the GI50 [1] read?
Its GI50 is 12 nM.

What about the GI50 [2] of the same compound?
Its GI50 is 26 nM.

What about the GI50 [3] of the same compound?
The GI50 was 4 nM.

And the GI50 [4]?
Its GI50 is 4 nM.

And the GI50 [5]?
The GI50 was 381 nM.

What about the GI50 [6] of the same compound?
The GI50 was 9 nM.

`COc1cc(N2CCC(N3CCN(C)CC3)CC2)c(C)cc1Nc1ncc(Br)c(Nc2ccc3nccnc3c2NS(C)(=O)=O)n1` [Example A4, N-(6-((5-bromo-2-((2-methoxy-5-methyl-4-(4-(4-methylpiperazin-1-yl)piperidin-1-yl)phenyl)amino)pyrimidin-4-yl)amino)quinoxalin-5-yl)methanesulfonamide] was tested. Which GI50 [1] did it give?
The GI50 was 12 nM.

And the GI50 [2]?
Its GI50 is 34 nM.

What about the GI50 [3] of the same compound?
Its GI50 is 1 nM.

What about the GI50 [4] of the same compound?
The GI50 was 3 nM.

What about the GI50 [5] of the same compound?
The GI50 was 249 nM.

What about the GI50 [6] of the same compound?
The GI50 was 6 nM.

Which GI50 [1] does the source give for `CCCc1cc(Nc2ncc(Cl)c(Nc3ccc4nccnc4c3NS(C)(=O)=O)n2)c(OC)cc1N1CCC(N2CCN(C)CC2)CC1` [Example A6, N-(6-((5-chloro-2-((2-methoxy-4-(4-(4-methylpiperazin-1-yl)piperidin-1-yl)-5-propylphenyl)amino)pyrimidin-4-yl)amino)quinoxalin-5-yl)methanesulfonamide] here?
Its GI50 is 14 nM.

What about the GI50 [2] of the same compound?
Its GI50 is 29 nM.

And the GI50 [3]?
The GI50 was 4 nM.

What about the GI50 [4] of the same compound?
The GI50 was 5 nM.

And the GI50 [5]?
The GI50 was 498 nM.

What about the GI50 [6] of the same compound?
Its GI50 is 12 nM.

With `CCc1cc(Nc2ncc(Br)c(Nc3ccc4nccnc4c3N(C)S(C)(=O)=O)n2)c(OC)cc1N1CCC(N2CCN(C)CC2)CC1` [Example A10, N-(6-((5-bromo-2-((5-ethyl-2-methoxy-4-(4-(4-methylpiperazin-1-yl)piperidin-1-yl)phenyl)amino)pyrimidin-4-yl)amino)quinoxalin-5-yl)-N-methylmethane sulfonamide] as the compound, how does the GI50 [1] read?
Its GI50 is 16 nM.

What about the GI50 [2] of the same compound?
The GI50 was 37 nM.

What about the GI50 [3] of the same compound?
The GI50 was 4 nM.

What about the GI50 [4] of the same compound?
Its GI50 is 5 nM.

What about the GI50 [5] of the same compound?
Its GI50 is 400 nM.

What about the GI50 [6] of the same compound?
Its GI50 is 9 nM.

Which results are given for `COc1cc(N2CCC(N3CCN(C)C4(CC4)C3)CC2)ccc1Nc1ncc(Cl)c(Nc2ccc3nccnc3c2NS(C)(=O)=O)n1` [Example A15, N-(6-((5-chloro-2-((2-methoxy-4-(4-(4-methyl-4,7-diazaspiro[2.5]octan-7-yl)piperidin-1-yl)phenyl)amino)pyrimidin-4-yl)amino)quinoxalin-5-yl)methanesulfonamide]?
GI50 [1]: 295 nM; GI50 [2]: 423 nM; GI50 [3]: 211 nM; GI50 [4]: 156 nM; GI50 [5]: 811 nM; GI50 [6]: 473 nM

Which GI50 [1] does the source give for `COc1cc(N2CCC(N3CCN(C)CC3)CC2)c(C)cc1Nc1ncc(Br)c(Nc2ccc3nccnc3c2NS(=O)(=O)C2CC2)n1` [Example A19, N-(6-((5-bromo-2-((2-methoxy-5-methyl-4-(4-(4-methylpiperazin-1-yl)piperidin-1-yl)phenyl)amino)pyrimidin-4-yl)amino)quinoxalin-5-yl)cyclopropanesulfonamide] here?
Its GI50 is 66 nM.

And the GI50 [2]?
Its GI50 is 80 nM.

And the GI50 [3]?
The GI50 was 24 nM.

What about the GI50 [4] of the same compound?
The GI50 was 6 nM.

And the GI50 [5]?
The GI50 was 395 nM.

And the GI50 [6]?
The GI50 was 43 nM.

How did the GI50 [1] turn out when `COc1cc(N2CCC(N3CCN(C)CC3)CC2)c(C)cc1Nc1ncc(C)c(Nc2ccc3nccnc3c2NS(C)(=O)=O)n1` [Example A21, N-(6-((2-((2-methoxy-5-methyl-4-(4-(4-methylpiperazin-1-yl)piperidin-1-yl)phenyl)amino)-5-methylpyrimidin-4-yl)amino)quinoxalin-5-yl)methane sulfonamide] was run?
Its GI50 is 23 nM.

What about the GI50 [2] of the same compound?
The GI50 was 52 nM.

And the GI50 [3]?
The GI50 was 58 nM.

And the GI50 [4]?
Its GI50 is 24 nM.

And the GI50 [5]?
The GI50 was 460 nM.

What about the GI50 [6] of the same compound?
The GI50 was 103 nM.

What does the source list for `COc1cc(N2CCC(N3CCOCC3)CC2)c(C)cc1Nc1ncc(Br)c(Nc2ccc3nccnc3c2NS(C)(=O)=O)n1` [Example A23, N-(6-((5-bromo-2-((2-methoxy-5-methyl-4-(4-morpholinopiperidin-1-yl)phenyl)amino)pyrimidin-4-yl)amino)quinoxalin-5-yl)methanesulfonamide]?
GI50 [1]: 51 nM; GI50 [2]: 114 nM; GI50 [3]: 16 nM; GI50 [4]: 41 nM; GI50 [5]: 416 nM; GI50 [6]: 49 nM

What does the source list for `CCS(=O)(=O)Nc1c(Nc2nc(Nc3cc(C)c(N4CCC(N5CCN(C)CC5)CC4)cc3OC)ncc2Br)ccc2nccnc12` [Example A24, N-(6-((5-bromo-2-((2-methoxy-5-methyl-4-(4-(4-methylpiperazin-1-yl)piperidin-1-yl)phenyl)amino)pyrimidin-4-yl)amino)quinoxalin-5-yl)ethanesulfonamide]?
GI50 [1]: 49 nM; GI50 [2]: 114 nM; GI50 [3]: 74 nM; GI50 [4]: 10 nM; GI50 [5]: 397 nM; GI50 [6]: 13 nM

With `CCS(=O)(=O)Nc1c(Nc2nc(Nc3cc(C)c(N4CCC(N5CCN(C)CC5)CC4)cc3OC)ncc2Cl)ccc2nccnc12` [Example A25, N-(6-((5-chloro-2-((2-methoxy-5-methyl-4-(4-(4-methylpiperazin-1-yl)piperidin-1-yl)phenyl)amino)pyrimidin-4-yl)amino)quinoxalin-5-yl)ethanesulfonamide] as the compound, how does the GI50 [1] read?
The GI50 was 46 nM.

And the GI50 [2]?
The GI50 was 112 nM.

What about the GI50 [3] of the same compound?
Its GI50 is 134 nM.

And the GI50 [4]?
Its GI50 is 18 nM.

And the GI50 [5]?
Its GI50 is 373 nM.

What about the GI50 [6] of the same compound?
Its GI50 is 34 nM.

Which results are given for `COc1cc(N2CCC(N3CCN(C)CC3)CC2)c(F)cc1Nc1ncc(Br)c(Nc2ccc3nccnc3c2NS(C)(=O)=O)n1` [Example A27, N-(6-((5-bromo-2-((5-fluoro-2-methoxy-4-(4-(4-methylpiperazin-1-yl)piperidin-1-yl)phenyl)amino)pyrimidin-4-yl)amino)quinoxalin-5-yl)methanesulfonamide]?
GI50 [1]: 101 nM; GI50 [2]: 184 nM; GI50 [3]: 192 nM; GI50 [4]: 27 nM; GI50 [5]: 183 nM; GI50 [6]: 65 nM

Which GI50 [1] does the source give for `CCc1cc(Nc2ncc(Br)c(Nc3ccc4nccnc4c3NS(C)(=O)=O)n2)c(OC)cc1N1CCC(N2CCOCC2)CC1` [Example A28, N-(6-((5-bromo-2-((5-ethyl-2-methoxy-4-(4-morpholinopiperidin-1-yl)phenyl)amino)pyrimidin-4-yl)amino)quinoxalin-5-yl)methanesulfonamide] here?
Its GI50 is 36 nM.

What about the GI50 [2] of the same compound?
The GI50 was 101 nM.

And the GI50 [3]?
The GI50 was 51 nM.

And the GI50 [4]?
The GI50 was 10 nM.

What about the GI50 [5] of the same compound?
Its GI50 is 318 nM.

What about the GI50 [6] of the same compound?
The GI50 was 17 nM.

For `CCc1cc(Nc2ncc(Cl)c(Nc3ccc4nccnc4c3N(C)S(C)(=O)=O)n2)c(OC)cc1N1CCC(N2CCN(C)CC2)CC1` [Example A38, N-(6-((5-chloro-2-((5-ethyl-2-methoxy-4-(4-(4-methylpiperazin-1-yl)piperidin-1-yl)phenyl)amino)pyrimidin-4-yl)amino)quinoxalin-5-yl)-N-methylmethanesulfonamide], which GI50 [2] is on record?
The GI50 was 18 nM.

And the GI50 [3]?
The GI50 was 5 nM.

And the GI50 [4]?
Its GI50 is 5 nM.

What about the GI50 [5] of the same compound?
The GI50 was 347 nM.

What about the GI50 [6] of the same compound?
The GI50 was 33 nM.

Which GI50 [2] does the source give for `COc1cc(N2CC3(CNC3)C2)ccc1Nc1ncc(Cl)c(Nc2ccc3nccnc3c2NS(C)(=O)=O)n1` [Example D7, N-(6-((5-chloro-2-((2-methoxy-4-(2,6-diazaspiro[3.3]heptan-2-yl)phenyl)amino)pyrimidin-4-yl)amino)quinoxalin-5-yl)methanesulfonamide] here?
The GI50 was greater than 2000 nM.

What about the GI50 [3] of the same compound?
Its GI50 is greater than 2000 nM.

And the GI50 [4]?
Its GI50 is greater than 2000 nM.

And the GI50 [5]?
Its GI50 is greater than 2000 nM.

What about the GI50 [6] of the same compound?
The GI50 was greater than 2000 nM.
